The compounds below were run on NMNAT2 (assay: NMNAT2-Hibit nano-luciferase activity in transfected U87MG cells, 25 μM, 24 hours). Conditions: NMNAT2-Hibit luc plasmid, 24 hours (Table B).
Format: cell-based
Procedure: Selected compounds were tested in vitro. Briefly, U87MG cells were transfected with NMNAT2-Hibit luc plasmid. Cells were treated with a test compound at 25 μM for 24 hours. Cells were then collected and assayed for nano-luciferase activity.

| SMILES | B: compound efficacy (IC50) for NMNAT2 activation; increase in NMNAT2 luciferase activity |
| --- | --- |
| Cc1cccc(CCNC(=O)NCc2noc3ccccc23)c1 [Compound 181023] | + (“+” <20% increase in NMNAT2 luciferase activity.) |
| CCc1ccccc1NC(=O)NCc1noc2ccccc12 [Compound 181024] | + (“+” <20% increase in NMNAT2 luciferase activity.) |
| O=C(NCc1cccc(Cl)c1)NCc1noc2ccccc12 [Compound 181025] | + (“+” <20% increase in NMNAT2 luciferase activity.) |
| COc1ccc(NC(=O)NCc2noc3ccccc23)cc1 [Compound 181026] | + (“+” <20% increase in NMNAT2 luciferase activity.) |
| O=C(NCc1noc2ccccc12)Nc1ccccc1Cl [Compound 181027] | + (“+” <20% increase in NMNAT2 luciferase activity.) |
| O=C(NCc1noc2ccccc12)Nc1ccc(Cl)cc1 [Compound 181028] | + (“+” <20% increase in NMNAT2 luciferase activity.) |
| O=C(NCc1ccc(Cl)cc1)NCc1noc2ccccc12 [Compound 181029] | ++ (“++” >20% and <100% increase in NMNAT2 luciferase activity.) |
| Cc1ccc(CCNC(=O)NCc2noc3ccccc23)cc1 [Compound 181030] | + (“+” <20% increase in NMNAT2 luciferase activity.) |
| CC(=O)c1cccc(NC(=O)NCc2noc3ccccc23)c1 [Compound 181031] | + (“+” <20% increase in NMNAT2 luciferase activity.) |
| CN(C(=O)NCc1noc2ccccc12)c1ccc(F)cc1 [Compound 181032] | + (“+” <20% increase in NMNAT2 luciferase activity.) |
| CSc1ccc(CCNC(=O)NCc2noc3ccccc23)cc1 [Compound 181033] | ++ (“++” >20% and <100% increase in NMNAT2 luciferase activity.) |
| CC(NC(=O)NCc1noc2ccccc12)c1ccccc1 (stereo not drawn) [Compound 181034] | + (“+” <20% increase in NMNAT2 luciferase activity.) |
| Cc1cc(C)cc(NC(=O)NCc2noc3ccccc23)c1 [Compound 181035] | + (“+” <20% increase in NMNAT2 luciferase activity.) |
| O=C(NCc1ccccc1)NCc1noc2ccccc12 [Compound 181036] | + (“+” <20% increase in NMNAT2 luciferase activity.) |
| Cc1ccc2onc(CNC(=O)Nc3cccc(C(F)(F)F)c3)c2c1 [Compound 181037] | + (“+” <20% increase in NMNAT2 luciferase activity.) |
| Cc1ccc(NC(=O)NCc2noc3ccc(C)cc23)c(Br)c1 [Compound 181038] | + (“+” <20% increase in NMNAT2 luciferase activity.) |
| Cc1ccc2onc(CNC(=O)Nc3ccc(C)c(F)c3)c2c1 [Compound 181039] | + (“+” <20% increase in NMNAT2 luciferase activity.) |
| Cc1ccc2onc(CNC(=O)Nc3ccc(F)c(Cl)c3)c2c1 [Compound 181040] | + (“+” <20% increase in NMNAT2 luciferase activity.) |
| COc1ccc(NC(=O)NCc2noc3ccc(C)cc23)cc1Cl [Compound 181041] | + (“+” <20% increase in NMNAT2 luciferase activity.) |
| Cc1ccc2onc(CNC(=O)Nc3ccc(F)cc3F)c2c1 [Compound 181042] | + (“+” <20% increase in NMNAT2 luciferase activity.) |
| Cc1ccc2onc(CNC(=O)Nc3ccccc3F)c2c1 [Compound 181043] | + (“+” <20% increase in NMNAT2 luciferase activity.) |
| COc1ccccc1CNC(=O)NCc1noc2ccc(C)cc12 [Compound 181044] | + (“+” <20% increase in NMNAT2 luciferase activity.) |
| Cc1ccc2onc(CNC(=O)N3CCN(c4cccc(Cl)c4)CC3)c2c1 [Compound 181045] | + (“+” <20% increase in NMNAT2 luciferase activity.) |
| Cc1ccc2onc(CNC(=O)NC3CCCC(C)C3C)c2c1 (stereo not drawn) [Compound 181046] | + (“+” <20% increase in NMNAT2 luciferase activity.) |
| Cc1ccc2onc(CNC(=O)NCc3ccc(F)cc3)c2c1 [Compound 181047] | ++ (“++” >20% and <100% increase in NMNAT2 luciferase activity.) |
| COCCCNC(=O)NCc1noc2ccc(C)cc12 [Compound 181048] | ++ (“++” >20% and <100% increase in NMNAT2 luciferase activity.) |

| SMILES | B: compound efficacy (IC50) for NMNAT2 activation; increase in NMNAT2 luciferase activity |
| --- | --- |
| Cc1ccc2onc(CNC(=O)NC3CCCCCC3)c2c1 [Compound 181049] | + (“+” <20% increase in NMNAT2 luciferase activity.) |
| Cc1ccc2onc(CNC(=O)NCc3ccccn3)c2c1 [Compound 181050] | + (“+” <20% increase in NMNAT2 luciferase activity.) |
| Cc1ccc2onc(CNC(=O)NCc3cccnc3)c2c1 [Compound 181051] | + (“+” <20% increase in NMNAT2 luciferase activity.) |
| CCc1ccc(NC(=O)NCc2noc3ccc(C)cc23)cc1 [Compound 181052] | + (“+” <20% increase in NMNAT2 luciferase activity.) |
| Cc1ccc2onc(CNC(=O)Nc3ccc(C(C)C)cc3)c2c1 [Compound 181053] | + (“+” <20% increase in NMNAT2 luciferase activity.) |
| CCN(C(=O)NCc1noc2ccc(C)cc12)c1cccc(Cl)c1 [Compound 181054] | + (“+” <20% increase in NMNAT2 luciferase activity.) |
| Cc1ccc2onc(CNC(=O)N(C)c3cccc(Cl)c3)c2c1 [Compound 181055] | + (“+” <20% increase in NMNAT2 luciferase activity.) |
| Cc1ccc2onc(CNC(=O)N(C)c3ccc(C)c(C)c3)c2c1 [Compound 181056] | + (“+” <20% increase in NMNAT2 luciferase activity.) |
| Cc1ccc2onc(CNC(=O)N(C)c3ccccc3Cl)c2c1 [Compound 181057] | + (“+” <20% increase in NMNAT2 luciferase activity.) |
| Cc1cccc(N(C)C(=O)NCc2noc3ccc(C)cc23)c1 [Compound 181058] | + (“+” <20% increase in NMNAT2 luciferase activity.) |
| Cc1ccc2onc(CNC(=O)NCCc3ccc(Cl)cc3)c2c1 [Compound 181059] | + (“+” <20% increase in NMNAT2 luciferase activity.) |
| COc1ccc(CNC(=O)NCc2noc3ccc(C)cc23)cc1 [Compound 181060] | ++ (“++” >20% and <100% increase in NMNAT2 luciferase activity.) |
| CCCN(C(=O)NCc1noc2ccc(C)cc12)c1ccc(Cl)c(Cl)c1 [Compound 181061] | + (“+” <20% increase in NMNAT2 luciferase activity.) |
| Cc1ccc(NC(=O)NCc2noc3ccc(C)cc23)c(Cl)c1 [Compound 181062] | + (“+” <20% increase in NMNAT2 luciferase activity.) |
| Cc1ccc2onc(CNC(=O)NC3CC3)c2c1 [Compound 181063] | + (“+” <20% increase in NMNAT2 luciferase activity.) |
| CCn1c2ccccc2c2cc(NC(=O)NCc3noc4ccc(C)cc34)ccc21 [Compound 181064] | + (“+” <20% increase in NMNAT2 luciferase activity.) |
| Cc1ccc2onc(CNC(=O)NC3CCN(Cc4ccccc4)CC3)c2c1 [Compound 181065] | + (“+” <20% increase in NMNAT2 luciferase activity.) |
| Cc1ccc2onc(CNC(=O)Nc3cccc(C#N)c3)c2c1 [Compound 181066] | + (“+” <20% increase in NMNAT2 luciferase activity.) |
| CCc1cccc(NC(=O)NCc2noc3ccc(C)cc23)c1 [Compound 181067] | + (“+” <20% increase in NMNAT2 luciferase activity.) |
| CCc1ccc(CNC(=O)NCc2noc3ccc(C)cc23)cc1 [Compound 181068] | ++ (“++” >20% and <100% increase in NMNAT2 luciferase activity.) |
| Cc1ccc(CNC(=O)NCc2noc3ccc(C)cc23)cc1 [Compound 181069] | ++ (“++” >20% and <100% increase in NMNAT2 luciferase activity.) |
| CCCCN(C)CCNC(=O)NCc1noc2ccc(C)cc12 [Compound 181070] | + (“+” <20% increase in NMNAT2 luciferase activity.) |
| Cc1ccc2onc(CNC(=O)NC3CCCC3)c2c1 [Compound 181071] | + (“+” <20% increase in NMNAT2 luciferase activity.) |
| COc1ccc(OC)c(CNC(=O)NCc2noc3ccc(C)cc23)c1 [Compound 181072] | + (“+” <20% increase in NMNAT2 luciferase activity.) |
| Cc1ccc2onc(CNC(=O)NCCN(C)Cc3ccccc3)c2c1 [Compound 181073] | + (“+” <20% increase in NMNAT2 luciferase activity.) |

From US20220169632A1, “METHODS AND MATERIALS FOR INCREASING OR MAINTAINING NICOTINAMIDE MONONUCLEOTIDE ADENYLYL TRANSFERASE-2 (NMNAT2) POLYPEPTIDE LEVELS” (University of Pittsburgh - Of the Commonwealth System of …, priority 2019, published 2022)
